Experimental data as given in paper PMC10010340, “The Wnt Pathway Inhibitor RXC004 Blocks Tumor Growth and Reverses Immune Evasion in Wnt Ligand–dependent Cancer Models” (Cancer Research Communications, 2022).

Assays:
AsPC1 xenograft = assay: Xenograft pilot study; assay type: in vivo, mouse (athymic nude); conditions: AsPC1, 1.5 mg/kg twice daily oral
Method: (§1) The in vivo pilot studies were performed at Axis Bioservices. HPAF-II (5 × 10^6 cells; athymic nude mice), AsPC1 (3 × 10^6 cells; athymic nude mice), and SNU-1411 (1 × 10^7 cells; NOD-SCID mice) were implanted bilaterally, subcutaneously, whereas HCT116 (3 × 10^6 cells; athymic nude mice) were implanted in a single flank. Animals were randomized into the indicated groups and treatment initiated once tumor volumes reached approximately 100–150 mm^3. Dosing was either 1.5 mg/kg twice daily RXC004 for 7–13 days then once daily for the remainder of study (up to 29 days), or 28 days 1.5 mg/kg twice daily RXC004 for HCT116. In these and all other animal studies, unless otherwise specified, RXC004 was dosed orally in 0.5% carboxymethylcellulose + 0.1% Tween-80. For AsPC1, an ascites model, end of study tumor weight (mg) was measured. A total of 12 hours after the final dose, RNA was extracted [GenElute RNA isolation kit (#RTN70, Sigma)] from snap frozen tumor for qRT-PCR expression analysis of Axin2, c-Myc, RNF43, MUC4, and MUC5AC relative to appropriate housekeepers.

HCT116 xenograft = assay: Xenograft pilot study; assay type: in vivo, mouse (athymic nude); conditions: HCT116, 1.5 mg/kg twice daily oral, 28 days
Method: as §1

HPAF-II xenograft = assay: Xenograft pilot study; assay type: in vivo, mouse (athymic nude); conditions: 1.5 mg/kg twice daily oral
Method: as §1

[1] = tested on: cell lines with RNF43 mutations and RSPO3 fusions; assay: Proliferation, 5 days, ATPLite; assay type: cell-based, human; conditions: concentration-series
Method: Cells were treated with a concentration-series of RXC004 for 5 days and proliferation measured using ATPLite 1-Step Reagent (Perkin Elmer #6016731). Data were normalized to DMSO-treated controls and IC50 values determined. Colorectal cell lines used were: WiDR (APC-E853*/T1556fs*3), HCT116 (β-cateninΔSer45; RNF43-R117fs*41), JVE-109 (RNF43-V211fs*47/G659fs*41), SNU-1411 (PRPTK-RSPO-3 fusion). Pancreatic cell lines were: CAPAN-2 (RNF43-R330fs*89), AsPC1 (RNF43-S720*), and HPAF-II (RNF43-E174*). Cell lines were from ATCC, except for SNU-1411 (Korean Cell Line Bank) and cultured for no more than 20 passages. Cells were routinely tested for Mycoplasma by the MycoAlert test (Lonza) and authenticated using short tandem repeat fingerprinting.

[2] = tested on: cell lines with RNF43 LoF mutations and RSPO3 fusions; assay: Wnt-responsive gene expression (qPCR); assay type: cell-based, human; conditions: 10 nmol/L, 3 days
Source text: (§2) The expression of nine potential Wnt-responsive genes was screened across cell lines by treatment with RXC004 (10 nmol/L) or DMSO (0.1%) for 3 days. RNA was extracted (Aurum RNA isolation kit, Bio-Rad #372-6820) and gene expression assessed by Taqman qPCR relative to appropriate housekeeping genes on the Bio-Rad CFX real-time system.
(§3) For concentration–response effects on gene expression, Single-Shot Cell Lysis kit (Bio-Rad #172-5080) was used for RNA extraction, data were normalized to DMSO-treated controls, and IC50 values determined. For cell-cycle analysis, the cancer cell line panel was treated with RXC004 (100 nmol/L) or DMSO (0.1%) for 3 days. Cell-cycle profiles were determined by staining with propidium iodide (Thermo Fisher Scientific #P3566) and phospho-Ser10-Histone-H3 (AlexaFluor-647, BioLegend #650806), and quantified using an Agilent Novocyte-3000 flow cytometer. For in vitro growth curve analysis, HPAF-II and SNU-1411 cells were seeded in 96-well plates at 2,000 cells/well and imaged on the IncuCyte (Sartorius) at 10× magnification with 4 fields of view per well. Total cell object count over time was calculated using the Adherent Cell-by-Cell analysis module.

WiDR cells = assay: Wnt-responsive gene expression (qPCR); assay type: cell-based, human
Source text: as §2, §3

HCT116 cells = assay: Wnt-responsive gene expression (qPCR); assay type: cell-based, human
Source text: as §2, §3

Plasma protein binding = assay type: in vitro ADME
Method: Plasma protein binding: Mouse, rat, dog, and human plasmas were obtained from TCS Biosciences Ltd and Sera Laboratories Ltd. A total of 20 μmol/L RXC004 in 10% plasma diluted with phosphate buffer was dialyzed against phosphate buffer for 18 hours at 37°C. The concentration of RXC004 each side of the dialysis plate was determined by LC/MS-MS. Results were corrected to 100% plasma.

SNU-1411 cells = assay: Caspase 3/7 analysis; assay type: cell-based, human; conditions: SNU-1411, 100nM, 7 days
Method: (§4) Cells were treated with RXC004 (100 nmol/L) or DMSO (0.02%) for 7 days. Caspase 3/7 activity was measured using Caspase-Glo 3/7 Assay System (Promega #G8091) and data were plotted as a ratio relative to cell number as quantified using ATPlite 1-Step Reagent (Perkin Elmer #6016731).

HPAF-II cells = assay: Caspase 3/7 analysis; assay type: cell-based, human; conditions: 100nM, 7 days
Method: as §4

Hepatocyte stability = assay type: in vitro ADME; conditions: Human, 1 μmol/L
Method: Metabolic stability: liver microsomes and hepatocytes from human, mouse (CD1), rat (Sprague Dawley) and dog (Beagle) were obtained from Invitrogen. RXC004 (1 μmol/L) was incubated at 37°C with microsomes (0.5 mg · mL^−1) or hepatocytes (0.5 × 10^6 cells · mL^−1). Aliquots were removed at 0–45 minutes and RXC004 concentrations determined by LC/MS-MS analysis. Half-life (T1/2) and intrinsic clearance (CLint) were calculated as described in ref. [18].

B16F10 tumors = assay: B16F10/SCID-Beige model; assay type: in vivo, mouse (SCID-Beige); conditions: 5 mg/kg once daily for 21 days, immunocompromised mice
Method: B16F10/SCID-Beige model was performed at Axis Bioservices. Mouse B16F10 cells (2 × 10^5) were subcutaneously implanted in flanks of the immunocompromised male SCID-Beige mice. Treatment with RXC004 (5 mg/kg once daily) was initiated at day 3, once the tumors were palpable, and tumor volume assessed over time.

For `Cc1c(-c2ccnc(C(F)(F)F)c2)ncn1CC(=O)Nc1ccc(-c2cnccn2)cn1` [RXC004, 2-[5-methyl-4-[2-(trifluoromethyl)-4-pyridyl]imidazol-1-yl]-N-(5-pyrazin-2-yl-2-pyridyl)acetamide], the “Wnt-responsive gene expression in tumor including c-Myc” value (AsPC1 xenograft) was “inhibition of Wnt-responsive gene expression”, the “tumor growth (tumor weight)” value (AsPC1 xenograft) was “reduction in tumor growth” and the tumor growth (HCT116 xenograft) was “No effect”. For the same compound, the “Wnt-responsive gene expression in tumor including c-Myc” value (HPAF-II xenograft) was “inhibition of Wnt-responsive gene expression”, the tumor growth (HPAF-II xenograft) was “reduction in tumor growth” and the proliferation [1] was “inhibited proliferation”. For the same compound, the “mRNA expression of Wnt pathway targets Axin2, RNF43, c-Myc, CD44, MMP7” value [2] was “downregulated mRNA expression of Wnt pathway targets”, the “mucin mRNA” value [2] was “marked increase in mucin mRNA” and the IC50 (WiDR cells; Homo sapiens, WiDr, read-out: IC50, c-Myc mRNA expression) was > 10 µM. For the same compound, the “Wnt pathway target expression” value (WiDR cells; WiDR, 10 nmol/L, 3 days) was “Minimal effects”, the “Wnt pathway target expression” value (HCT116 cells; HCT116, 10 nmol/L, 3 days) was “Minimal effects” and the IC50 (HCT116 cells; Homo sapiens, HCT-116, HCT116, read-out: IC50, c-Myc mRNA expression) was > 10 µM. The “Plasma protein binding (% free)” value (Plasma protein binding; Dog) was 2.5 % free, the “Plasma protein binding (% free)” value (Plasma protein binding; Human) was 4.2 % free and the “Plasma protein binding (% free)” value (Plasma protein binding; Mouse) was 7.5 % free. For the same compound, the “Plasma protein binding (% free)” value (Plasma protein binding; Rat) was 5.0 % free, the “relative Caspase 3/7 activity” value (SNU-1411 cells) was “no effect” and the “relative Caspase 3/7 activity” value (HPAF-II cells) was “no effect”. The “Hepatocyte stability: CLint” value (Hepatocyte stability) was <3.0 μL minute^−^1 · 10^6 cells^−^1 and the tumor growth (B16F10 tumors) was “did not reduce tumor growth”.
